{"source": "patent EP2992880A1", "about": "“Use of heme oxygenase 1 inducers and cannabinoid 2 receptor or delta-opioid receptor agonists in inflammatory pain” (Fundació Institut de Recerca de l'Hospital de la Santa Creu …, priority 2014, dated 2016)", "key": {"[1]": {"conditions": "neuropathic pain; cited from earlier work"}, "[2]": {"conditions": "visceral pain; cited from earlier work"}, "[3]": {"test_system": "CFA-injected mice", "experiment": "von Frey filaments test (mechanical allodynia) in CFA-induced chronic inflammatory pain", "format": "in vivo, male C57BL/6 mice", "method": "The experiments were performed in male C57BL/6 mice acquired from Harlan Laboratories (Barcelona, Spain). All mice weighing 21 to 25 g were housed under 12-h/12-h light/ dark conditions in a room with controlled temperature (22° C) and humidity (66%). Animals had free access to food and water and were used after a minimum of 7 days acclimatization to the housing conditions. All experiments were performed according with the Guide for the Care and Use of Laboratory Animals as adopted and promulgated by the U.S. National Institutes of Health and approved by the local Committee of Animal Use and Care of the Autonomous University of Barcelona. All efforts were made to minimize animal suffering and to reduce the number of animals used.\nChronic inflammatory pain was induced by the subplantar injection of 30 µl of CFA (Sigma) into the right hind paw under brief anesthetic conditions with isoflurane according to previous works (Leánez et al., Eur J Pharmacol, 2009, 602:41-49; Hervera et al., Naunyn Schmiedebergs Arch Pharmacol, 2009, 380:345-352). All experiments were performed at 10 days after CFA injection. At this time point, all of these animals developed a local inflammatory reaction, allodynia to mechanical stimuli and hyperalgesia to noxious thermal stimuli, as previously reported (Negrete et al., PLoS One, 2011, 6:e26688). The development of mechanical allodynia and thermal hyperalgesia was evaluated by using the von Frey filaments and plantar tests, respectively. All animals were tested in each paradigm before and at 10 days after CFA-injection.\nMechanical allodynia was quantified by measuring the hind paw withdrawal response to von Frey filament stimulation. In brief, animals were placed in methacrylate cylinders (20 cm high, 9 cm diameter; Servei Estació, Barcelona, Spain) with a wire grid bottom through which the von Frey filaments (North Coast Medical, Inc., San Jose, CA) with a bending force in the range of 0.008-3.5 g were applied by using a modified version of the up-down paradigm, as previously reported by Chaplan et al. (J Neurosci Methods, 1994, 53:55-63). The filament of 0.4 g was used first and the 3.0 g filament was used as a cut-off. Then, the strength of the next filament was decreased or increased according to the response. The threshold of response was calculated from the sequence of filament strength used during the up-down procedure by using an Excel program (Microsoft Iberia SRL, Barcelona, Spain) that includes curve fitting of the data. Clear paw withdrawal, shaking, or licking of the paw was considered as a nociceptive-like response. Both ipsilateral and contralateral hind paws were tested. Animals were allowed to habituate for 1 h before testing in order to allow an appropriate behavioral immobility.\nIn a first set of experiments, we assessed the expression of inflammatory pain induced by the subplantar administration of CFA as previously used (Leánez et al., Eur J Pharmacol, 2009, 602:41-49). After the habituation period, baseline responses were established in the following sequence: von Frey filaments and plantar test. After baseline measurements, inflammatory pain was induced and animals were again tested in each paradigm at day 10 after CFA injection by using the same sequence as for baseline responses. The contralateral paws were used as controls (n = 6 animals per group).\nIn a second set of experiments, we evaluated the mechanical antiallodynic and thermal antihyperalgesic effects of the subplantar administration of different doses of a specific DOR (DPDPE) or CB2R (JWH-015) agonist and their respective vehicles in the contralateral and ipsilateral paw of CFA-injected animals (n = 6 animals per group). […]"}, "[4]": {"test_system": "DOR", "experiment": "Western blot of DOR protein in dorsal root ganglia of CFA-injected mice", "format": "in vivo", "conditions": "CoPP treatment of CFA-injected mice; P < 0.001 (Fig. 7)", "method": "(§1) Animals were sacrificed at 0 days (naive) and after CFA-injection by cervical dislocation. Tissues from the ipsilateral section of the dorsal root ganglia (L3 to L5) were removed immediately after killing, frozen in liquid nitrogen, and stored at -80°C until assay. Samples from five animals were pooled into one experimental sample to obtain enough protein levels for performing Western blot analysis. The HO-1, DOR and CB2R protein levels were analyzed by Western blot. […]\n(§2) The proteins were electrophoretically transferred onto PVDF membrane for 120 min, blocked with PBS + 5% nonfat dry milk, and subsequently incubated overnight at 4°C with polyclonal rabbit anti-HO-1 (1:300, Stressgen, Ann Arbor, MI), anti-DOR (1:2500, Chemicon-Millipore) or anti-CB2R (1:500, Abcam, Cambridge, United Kingdom). The proteins were detected by a horseradish peroxidase-conjugated anti-rabbit secondary antibody (GE Healthcare, Little Chalfont, Buckinghamshire, United Kingdom) and visualized with chemiluminescence reagents (ECL kit; GE Healthcare) and by exposure onto hyperfilm (GE Healthcare). The intensity of blots was quantified by densitometry. […]\n(§3) Finally, in another set of experiments we evaluated the effects of CoPP on the expression of HO-1, DOR and CB2R in the ipsilateral site of the dorsal root ganglia from CFA-injected mice, by using Western blot assay. […]"}, "[5]": {"test_system": "CB2R", "experiment": "Western blot of CB2R protein in dorsal root ganglia of CFA-injected mice", "format": "in vivo", "conditions": "CoPP treatment of CFA-injected mice (Fig. 8)", "method": "as §1, §2, §3"}, "[6]": {"conditions": "inflammatory pain; cited from earlier work"}}, "note": "Where two headings read alike, the source gives them in different places."}
{"substance": "cobalt (III) protoporphyrin IX chloride [CoPP]", "values": [{"measurement": "effect of CoPP on the antinociceptive effect of DPDPE", "setting": "[1]", "value": "decreased"}, {"measurement": "effect of CoPP on the antinociceptive effect of JWH-015", "setting": "[1]", "value": "decreased"}, {"measurement": "effect of CoPP on the antinociceptive effect of morphine", "setting": "[1]", "value": "increases"}, {"measurement": "effect of CoPP on the antinociceptive effect of morphine treatment", "setting": "[2]", "value": "does not alter"}, {"measurement": "effect of CoPP treatment on the mechanical antiallodynic effects of DPDPE", "setting": "[3]; CoPP 10 mg/kg intraperitoneal, DPDPE 50 µg subplantar (Fig. 3A)", "value": "did not alter"}, {"measurement": "effect of CoPP treatment on the antiallodynic effects of JWH-015", "setting": "[3]; CoPP 10 mg/kg intraperitoneal, JWH-015 30 µg subplantar, P < 0.001 (Fig. 4A)", "value": "significantly enhanced"}, {"measurement": "mechanical allodynia induced by peripheral inflammation", "setting": "[3]; CoPP alone 10 mg/kg intraperitoneal, ipsilateral paw, P < 0.001 versus vehicle (Fig. 3A)", "value": "significantly attenuated"}, {"measurement": "Mechanical allodynia, Experimental results (%) (maximal possible effect)", "setting": "[3]; Table 5, ipsilateral paw, CoPP 10 mg/kg intraperitoneal, DPDPE 50 µg subplantar, vehicle 5.8", "value": 27.1, "unit": "%"}, {"measurement": "Mechanical allodynia, Experimental results (%) (maximal possible effect)", "setting": "[3]; Table 6, ipsilateral paw, CoPP 10 mg/kg intraperitoneal, JWH-015 30 µg subplantar, vehicle 4.1", "value": 25.3, "unit": "%"}, {"measurement": "decreased protein levels of DOR in the dorsal root ganglia from CFA-injected mice", "setting": "[4]", "value": "avoided"}, {"measurement": "peripheral expression of CB2R in the dorsal root ganglia from CFA-injected mice", "setting": "[5]", "value": "remains unaltered"}, {"measurement": "effect of CoPP on the antinociceptive effect of morphine", "setting": "[6]", "value": "increases"}]}
